Assay results: ChEMBL document CHEMBL1212936, “Discovery of 2-[1-(4-chlorophenyl)cyclopropyl]-3-hydroxy-8-(trifluoromethyl)quinoline-4-carboxylic acid (PSI-421), a P-selectin inhibitor with improved pharmacokinetic properties and oral efficacy in models of vascular injury” (J Med Chem, 2010)
Values after ≈ are worked out from the molar mass of the structure shown.

Assays:
[1] = molecular target: T1, P-selectin glycoprotein ligand 1 (Homo sapiens) (UniProt Q14242); assay: Inhibition of recombinant PSGL-1 at 250 uM by surface plasmon resonance assay
T1 sequence (whole entry): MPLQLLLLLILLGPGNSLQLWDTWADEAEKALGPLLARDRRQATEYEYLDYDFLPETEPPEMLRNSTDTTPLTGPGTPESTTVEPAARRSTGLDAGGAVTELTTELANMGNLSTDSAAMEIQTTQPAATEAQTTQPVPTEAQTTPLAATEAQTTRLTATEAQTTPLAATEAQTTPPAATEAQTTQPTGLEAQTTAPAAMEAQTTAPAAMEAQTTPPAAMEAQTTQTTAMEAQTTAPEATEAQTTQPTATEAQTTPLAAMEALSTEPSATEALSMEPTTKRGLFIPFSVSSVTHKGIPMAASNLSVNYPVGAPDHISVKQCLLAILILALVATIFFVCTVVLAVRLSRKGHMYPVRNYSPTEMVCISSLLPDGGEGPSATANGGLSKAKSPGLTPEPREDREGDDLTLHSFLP

CYP2C9 = CYP2C9 (Homo sapiens, UniProt P11712); assay: Inhibition of CYP2C9 at 3 uM; type: ADME
Chain of CYP2C9 (P11712 whole entry): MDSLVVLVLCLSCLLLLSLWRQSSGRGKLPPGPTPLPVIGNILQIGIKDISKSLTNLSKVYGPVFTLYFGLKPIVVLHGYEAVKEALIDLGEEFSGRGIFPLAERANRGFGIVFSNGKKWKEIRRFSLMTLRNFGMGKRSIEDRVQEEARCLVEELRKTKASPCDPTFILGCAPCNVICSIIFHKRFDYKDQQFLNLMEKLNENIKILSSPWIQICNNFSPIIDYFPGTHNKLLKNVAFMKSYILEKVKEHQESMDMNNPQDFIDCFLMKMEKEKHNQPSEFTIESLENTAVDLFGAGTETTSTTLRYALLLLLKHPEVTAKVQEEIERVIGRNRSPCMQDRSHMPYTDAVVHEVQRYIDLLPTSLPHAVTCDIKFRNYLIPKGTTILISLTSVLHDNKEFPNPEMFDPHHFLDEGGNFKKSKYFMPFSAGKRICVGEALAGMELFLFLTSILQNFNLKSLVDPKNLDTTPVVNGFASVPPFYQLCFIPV

[2] = Aqueous solubility of the compound at pH 6.6; type: physicochemical; conditions: aqueous solution
Rattus norvegicus = assay: Dose normalized AUC in Sprague-Dawley rat measured per mg of plasma at 3 mg/kg, iv and 10 mg/kg, po; type: ADME, organism-based; conditions: in vivo
[3] = Oral bioavailability in Sprague-Dawley rat at 10 mg/kg; type: ADME, organism-based; conditions: in vivo
[4] = Clearance in Sprague-Dawley rat at 3 mg/kg, iv and 10 mg/kg, po; type: ADME, organism-based; conditions: in vivo
[5] = molecular target: T2, P-selectin glycoprotein ligand 1 (Homo sapiens, UniProt Q14242); assay: Inhibition of recombinant PSGL-1 by surface plasmon resonance assay
T2 sequence (Q14242 whole entry): T1 sequence (whole entry)

Mus musculus = assay: Reduction of leukocytes rolling flux in acute intravital microscopy model of C57B6 mouse cremasteric postcapillary venules at 50 mg/kg, po after 35 mins relative to control; type: functional; set-up: scale not given: the % may be the effect or the level left

Structure (SMILES) | inhibition [1] | solubility [2] | other results
Cc1cc(C(F)(F)F)cc2c(C(=O)O)c(O)c(C3(c4ccc(Cl)cc4)CC3)nc12 | 40% |  | inhibition at 3 µM (CYP2C9): 42%
Cc1cc(C(F)(F)F)c2nc(C3(c4ccc(Cl)cc4)CC3)c(O)c(C(=O)O)c2c1 | 65% |  | inhibition at 3 µM (CYP2C9): 72%
O=C(O)c1c(O)c(C2Cc3ccccc32)nc2c(C(F)(F)F)cccc12 (centres undefined) | 45% | 800 µg/mL (≈ 2230 µM) | 
O=C(O)c1c(O)c(C2(c3ccc(Cl)cc3)CC2)nc2c(C(F)(F)F)cc(Br)cc12 | < 10% |  | inhibition at 3 µM (CYP2C9): 65%
CCc1cc(C(F)(F)F)c2nc(C3(c4ccc(Cl)cc4)CC3)c(O)c(C(=O)O)c2c1 | < 10% |  | inhibition at 3 µM (CYP2C9): 81%
O=C(O)c1c(O)c(C2(c3ccc(Cl)cc3)CCC2)nc2c(C(F)(F)F)cccc12 | 0% |  | 
CCc1cccc2c(C(=O)O)c(O)c(C3(c4ccc(Cl)cc4)CC3)nc12 |  | 140 µg/mL (≈ 381 µM) | AUC (Rattus norvegicus): 13986 ng·h/mL; bioavailability [3]: 100%; clearance [4]: 2.4 mL/min/kg
CC(c1ccccc1)c1nc2c3c(ccc2c(C(=O)O)c1O)CCCC3 (centres undefined) |  |  | IC50 [5]: 175 µM; AUC (Rattus norvegicus): 1259 ng·h/mL; bioavailability [3]: 66%; clearance [4]: 9 mL/min/kg
O=C(O)c1c(O)c(C2(c3ccsc3)CC2)nc2c(C(F)(F)F)cccc12 | 7% |  | 
CC(c1ccccc1)c1nc2c(C(F)(F)F)cccc2c(C(=O)O)c1O (centres undefined) | 50% | 1550 µg/mL (≈ 4290 µM) | 
O=C(O)c1c(O)c(C2(c3ccc(C(F)(F)F)cc3)CC2)nc2c(C(F)(F)F)cccc12 | 47% | 200 µg/mL (≈ 453 µM) | AUC (Rattus norvegicus): 13800 ng·h/mL; bioavailability [3]: 31%; clearance [4]: 0.4 mL/min/kg
O=C(O)c1c(O)c(C2(c3cccc(C(F)(F)F)c3)CC2)nc2c(C(F)(F)F)cccc12 | 46% | 1000 µg/mL (≈ 2270 µM) | 
O=C(O)c1c(O)c(C2Cc3ccccc3C2)nc2c(C(F)(F)F)cccc12 | 35% | 700 µg/mL (≈ 1880 µM) | AUC (Rattus norvegicus): 340 ng·h/mL; bioavailability [3]: 49%; clearance [4]: 28 mL/min/kg
Cc1cc(C(F)(F)F)c2nc(C3(c4ccccc4)CC3)c(O)c(C(=O)O)c2c1 | 40% |  | inhibition at 3 µM (CYP2C9): 87%
CC(C)(c1ccccc1)c1nc2c(C(F)(F)F)cccc2c(C(=O)O)c1O | 59% | 2810 µg/mL (≈ 7490 µM) | AUC (Rattus norvegicus): 1472 ng·h/mL; bioavailability [3]: 93%; clearance [4]: 3.7 mL/min/kg
O=C(O)c1c(O)c(C2(c3ccccc3)CC2)nc2c(C(F)(F)F)cccc12 | 44% | 2100 µg/mL (≈ 5630 µM) | 
Cc1cc(C)c2nc(C3(c4ccccc4)CC3)c(O)c(C(=O)O)c2c1 | 20% |  | inhibition at 3 µM (CYP2C9): 54%
COc1ccc(C2(c3nc4c(C(F)(F)F)cccc4c(C(=O)O)c3O)CC2)cc1 | 26% |  | 
CCC(c1ccccc1)c1nc2c(C(F)(F)F)cccc2c(C(=O)O)c1O (centres undefined) | 55% | 600 µg/mL (≈ 1600 µM) | 
O=C(O)c1c(O)c(C2(c3ccc(F)cc3)CC2)nc2c(C(F)(F)F)cccc12 | 56% | 2900 µg/mL (≈ 7410 µM) | AUC (Rattus norvegicus): 14282 ng·h/mL; bioavailability [3]: 39%; clearance [4]: 0.5 mL/min/kg
CC(C)c1cccc2c(C(=O)O)c(O)c(C3(c4ccc(F)cc4)CC3)nc12 |  | 2500 µg/mL (≈ 6840 µM) | AUC (Rattus norvegicus): 1263 ng·h/mL; bioavailability [3]: 65%; clearance [4]: 8.7 mL/min/kg
O=C(O)c1c(O)c(C2(c3ccccc3)CC2)nc2c(C(O)(C(F)(F)F)C(F)(F)F)cccc12 |  | 1500 µg/mL (≈ 3180 µM) | Activity (Mus musculus): 60%; AUC (Rattus norvegicus): 5035 ng·h/mL; bioavailability [3]: 44%; clearance [4]: 1 mL/min/kg
CC(C)c1cccc2c(C(=O)O)c(O)c(C3(c4ccccc4)CC3)nc12 |  | 370 µg/mL (≈ 1070 µM) | AUC (Rattus norvegicus): 2663 ng·h/mL; bioavailability [3]: 100%; clearance [4]: 9 mL/min/kg

Structure (SMILES) | inhibition [1] | solubility [2] | other results
Cc1ccc2c(C(=O)O)c(O)c(C3(c4ccc(Cl)cc4)CC3)nc2c1C |  | 190 µg/mL (≈ 517 µM) | AUC (Rattus norvegicus): 1735 ng·h/mL; bioavailability [3]: 75%; clearance [4]: 7 mL/min/kg
CCc1cc(C(F)(F)F)cc2c(C(=O)O)c(O)c(C3(c4ccc(Cl)cc4)CC3)nc12 | < 10% |  | inhibition at 3 µM (CYP2C9): 43%
Cc1cc(C)c2nc(C3(c4ccc(Cl)cc4)CC3)c(O)c(C(=O)O)c2c1 | 47% |  | inhibition at 3 µM (CYP2C9): 17%
CC(Cc1ccccc1)c1nc2c(C(F)(F)F)cccc2c(C(=O)O)c1O (centres undefined) | 49% | 1550 µg/mL (≈ 4130 µM) | 
O=C(O)c1c(O)c(C2(c3ccccc3)CC2)nc2c3c(ccc12)CCCC3 |  |  | IC50 [5]: 250 µM; AUC (Rattus norvegicus): 1925 ng·h/mL; bioavailability [3]: 45%; clearance [4]: 3.9 mL/min/kg
O=C(O)c1c(O)c(Cc2ccc(Cl)cc2)nc2c(C(F)(F)F)cccc12 | 40% | 440 µg/mL (≈ 1150 µM) | 
O=C(O)c1c(O)c(Cc2ccccc2)nc2c3c(ccc12)CCCC3 |  |  | IC50 [5]: 413 µM
CC(=O)N[C@H]1[C@H]([C@H](O)[C@H](O)CO)O[C@@](O[C@H]2[C@@H](O)[C@@H](CO)O[C@@H](O[C@@H]([C@H](O[C@@H]3O[C@@H](C)[C@@H](O)[C@@H](O)[C@@H]3O)[C@H](C=O)NC(C)=O)[C@H](O)CO)[C@@H]2O)(C(=O)O)C[C@@H]1O [SIALYL LEWIS X] |  |  | IC50 [5]: 15000 µM
CC(C)C(c1ccccc1)c1nc2c(C(F)(F)F)cccc2c(C(=O)O)c1O (centres undefined) | 58% | 30 µg/mL (≈ 77 µM) | 
CC(C)C(c1ccc(Cl)cc1)c1nc2c(C(F)(F)F)cccc2c(C(=O)O)c1O (centres undefined) | < 10% |  | 
O=C(O)c1c(O)c(C2(c3cccs3)CC2)nc2c(C(F)(F)F)cccc12 | 15% |  | 
CCc1cccc2c(C(=O)O)c(O)c(C3(c4ccc(C(F)(F)F)cc4)CC3)nc12 |  | 250 µg/mL (≈ 623 µM) | AUC (Rattus norvegicus): 2428 ng·h/mL; bioavailability [3]: 100%; clearance [4]: 9.4 mL/min/kg
O=C(O)c1c(O)c(C2(c3ccc(Cl)cc3)CC2)nc2c(C(F)(F)F)cc(Cl)cc12 | < 10% |  | inhibition at 3 µM (CYP2C9): 72%
Cc1ccc(C2(c3nc4c(C)cc(C)cc4c(C(=O)O)c3O)CC2)cc1 | 11% |  | inhibition at 3 µM (CYP2C9): 55%
O=C(O)c1c(O)c(C2(c3cccc(Cl)c3)CC2)nc2c(C(F)(F)F)cccc12 | 66% | 300 µg/mL (≈ 736 µM) | 
Cc1ccc(C2(c3nc4c(C)c(C)ccc4c(C(=O)O)c3O)CC2)cc1 | 24% |  | inhibition at 3 µM (CYP2C9): 47%
CC(Cc1nc2c(C(F)(F)F)cccc2c(C(=O)O)c1O)c1ccccc1 (centres undefined) | 46% | 680 µg/mL (≈ 1810 µM) | 
Cc1cc(C)c2nc(C3(c4ccc(F)cc4)CC3)c(O)c(C(=O)O)c2c1 | < 10% |  | inhibition at 3 µM (CYP2C9): 55%
O=C(O)c1c(O)c(C2(c3ccc(Br)cc3)CC2)nc2c(C(F)(F)F)cccc12 | 64% | 420 µg/mL (≈ 929 µM) | 
CCc1cc(C(F)(F)F)c2nc(C3(c4ccccc4)CC3)c(O)c(C(=O)O)c2c1 | 40% |  | inhibition at 3 µM (CYP2C9): 86%
O=C(O)c1c(O)c(C2(c3ccccc3Cl)CC2)nc2c(C(F)(F)F)cccc12 | 57% | 760 µg/mL (≈ 1860 µM) | AUC (Rattus norvegicus): 1336 ng·h/mL; bioavailability [3]: 19%; clearance [4]: 2.4 mL/min/kg
O=C(O)c1c(O)c(C2(c3ccc(OC(F)(F)F)cc3)CC2)nc2c(C(F)(F)F)cccc12 | 29% |  | 
